# Test results: patent EP0380897B1, “Pharmaceutical agents for female sterilization by way of intrauterine administration, and their therapeutical use” (priority 1989, dated 1990)
# Where two headings read alike, the source gives them in different places.
# Experiments:
# sujets = conditions: cited from earlier work
# trompes humaines = test: Clinical follow-up of pregnancies after non-surgical female sterilization with intrauterine quinacrine tablets, alone or with an anti-inflammatory adjuvant; format: in vivo, femmes; conditions: for taux de grossesse: quinacrine alone
# Experimental: (§1) Ce symptôme est survenu chez 6 % des sujets dans les deux insertions ou seulement dans une seule. • b) un phénomène de fièvre de 38°C à 39,5°C apparaissant le surlendemain du jour d'insertion et durant de 1 à 4 jours, sans relation avec le mal de tête. Les deux symptômes sont corrélés chez seulement quelques sujets. La fièvre est apparue chez 5 % des cas (parfois lors de la première insertion et parfois lors de la seconde). Les autres complications ont été semblables à celles décrites dans l'article publié précédemment J. Zipper et al. Adv. in Contraception 3(1987)255. A la fin de l'année de suivi, le taux de grossesse a été de 3,0 pour 100 femmes et par an.
# (§2) Un autre groupe utilisant la quinacrine seule a été constitué, qui a subi deux insertions intra-utérines avec des comprimés à 180 mg. Les insertions ont été séparées par un cycle menstruel - 190 sujets sont entrés dans cette étude. […] Chez un petit nombre de sujets seulement les deux symptômes ont été présents simultanément. La fièvre est apparue dans 3% des cas (pas nécessairement lors des deux insertions). Ce groupe a manifesté un taux de grossesse de 3 pour 100 femmes, et par an à la fin de la première année du suivi. Les deux groupes quinacrine (250 et 180 mg) ont été considéré comme des témoins pour les autres groupes qui ont reçu un anti-inflammatoire, un antipyrétique et des substances anti-prostagrandines.
# (§3) 4 mg de Bétaméthasone et 4 mg de Dexaméthasone ont été employé dans des groupes distincts de sujets. • 1 - 4 mg de Betaméthasone intra-musculaire Ce groupe incluait 90 sujets - 4 mg de Bethaméthasone ont été injectés lorsque le comprimé de quinacrine à 250 mg a été inséré. Ce procédé a été utilisé à nouveau avec le second comprimé (comprimé à 250 mg ayant un temps de dissolution de 100 mn). […] Les sujets ont achevé une année de suivi et ont représenté 1220 mois. […] Ce groupe incluait 65 sujets. […] Ces sujets ont effectué au total 830 mois de suivi. […] Ceci nous a conduit à faire des investigations sur la potentialisation possible des effets occlusifs de la quinacrine chez le rat dû à la betaméthasone. Cette méthode expérimentale est celle décrite pour d'autres substances (ref. Agent pharmacologique qui potentialisent ou inhibent l'action occlusivante de la quinacrine, dans le tube du lapin et dans l'utérus de rat cf J. ZIPPER-S.INSUNSA Female Stérilization - pronostic pour des techniques simplifiées pour le sujet ambulatoire Ed Gordon, W. Duncan, R.D. Falb et J. Joseph SPEIDEL (p 131-137), NEW YORK Acad. Press 1972 compte-rendu). La Betamethasone s'est révélée être active chez le rat, avec des solutions de l'ordre de 005 mg/ml. La base physiologique de cette action n'a pas été déterminée et aucun rapport à ce sujet n'a été publié (cf histologie de l'utérus de rat sous l'influence de 50 mg/ml de quinacrine + 0, 05 mg /ml Betamethasone Figure 1).
# Ce groupe inclue 80 sujets. Lorque le comprimé de 250 mg est inséré, 4 mg de Dexamethatone sont injectés par voie intramusculaire. La méthode est réputée avec un second comprimé. […] Les sujets ont achevé 950 mois de suivi.
# L'insertion est effectuée après que les comprimé aient été insérés. Ce groupe inclût 60 sujets. […] Ce groupe avait 850 mois de suivi.
# La bétaméthasone et la Dexamethasone sont des stéroïdes ayant une activité puissante antiphlogistique, anti-inflammatoire et anti-oedemateuse au niveau cérébral et sont des adjuvants importants pour réduire les effets secondaires indésirables de la quinacrine lorsque cette substance est employée pour provoquer l'occlusion la région intra-murale des trompes humaines afin de réaliser une stérilisation pharmacologique. En outre, un mécanisme d'action qui n'est pas clair, semble renforcer l'action d'occlusion de la quinacrine à ce niveau. Le nombre total de sujets a été de 295 et a représenté 3850 mois/femmes d'observation. Seulement une grossesse a été détectée. […]
# femmes = test: Clinical follow-up of side effects (fever, headache) after intrauterine insertion of quinacrine tablets, alone or with an anti-inflammatory adjuvant; format: in vivo
# Experimental: as §1
# as §2, with “anti-prostagrandines. […]” for “anti-prostagrandines.”
# • 1 - Diclofenac sel de sodium - Cet important agent anti-inflammatoire et inhibiteur de synthèse de prostaglandine a été appliqué en une dose unique intramusculaire de 75 mg, lorsque le comprimé de quinacrine à 180 mg a été inséré. Deux insertions par sujet ont été effectuées, séparées par un cycle menstruel - 78 sujets ont été traités - 702 mois de suivi. […] Ce procédé a été utilisé à nouveau avec le second comprimé séparé par un cycle menstruel. […] Ce groupe incluait 85 sujets. Les sujets ont achevé 1190 mois de suivi. […] Cet agent antipyrétique anti-inflammatoire a été appliqué en une dose unique intramusculaire de 2 g lorsque le pellet de quinacrine à 180 mg (temps de dissolution 10 minutes) a été inséré. Deux insertions, séparées par un cycle mentruel ont été effectuées - 76 sujets ont été traités, 1064 mois de suivi. […] D'autres agents anti-inflammatoires , antiprostaglandine non stéroidiens comme le Piroxicam, Indomethacine, Ibuprogene, Naproxen ou d'autres peuvent être utilisés. La recherche avec quelques uns de ces agents est en développement. De même, la recherche avec les inhibiteurs de synthèse de prostaglandines appliqués par voie intrautérine ou intramusculaire une seule fois est en développement.
# utérus de rat = test: Potentiation of the occlusive effect of quinacrine in the rat uterus; format: in vivo; conditions: solutions of the order of 005 mg/ml (Figure 1: 50 mg/ml quinacrine + 0, 05 mg /ml)
# Experimental: as §3, with “La base physiologique de cette action n'a pas été déterminée et aucun rapport à ce sujet n'a été publié (cf histologie de l'utérus de rat sous l'influence de 50 mg/ml de quinacrine + 0, 05 mg /ml Betamethasone Figure 1).” left out
# [1] = share of subjects after the first insertion of quinacrine (250 mg)
# [2] = share of subjects after the third insertion of quinacrine (250 mg)
# [3] = 50 mg tablets by the 'intra-urétine' route simultaneously with quinacrine tablets (180 mg, dissolution time 10 min), two insertions, 85 subjects, first seven days
# [4] = single 75 mg intramuscular dose at each of two insertions of 180 mg quinacrine tablet, 78 subjects, first week
smiles,measurement,setting,value
CCN(CC)CCCC(C)Nc1c2ccc(Cl)cc2nc2ccc(OC)cc12 (stereo not shown) [quinacrine],fièvre,sujets; [1],10%
same,maux de tête,sujets; [1],9%
same,fièvre,sujets; [2],2%
same,maux de tête,sujets; [2],"10,2%"
same,taux de grossesse,"trompes humaines; two insertions of 250 mg tablets, 209 subjects, 2544 months, end of the year of follow-up","3,0 pour 100 femmes et par an"
same,taux de grossesse,"trompes humaines; two intrauterine insertions of 180 mg tablets, 190 subjects, end of first year of follow-up","3 pour 100 femmes, et par an"
O=C(O)Cc1ccccc1Nc1c(Cl)cccc1Cl [Diclofenac sel de sodium],grossesse,"trompes humaines; 50 mg tablets by the 'intra-urétine' route simultaneously with quinacrine tablets (180 mg, dissolution time 10 min), 85 subjects, 1190 months of follow-up",Aucune grossesse n'a été détectée
same,grossesse,"trompes humaines; single 75 mg intramuscular dose at each of two insertions of 180 mg quinacrine tablet, 78 subjects, 702 months of follow-up",aucune grossesse n'a été détectée
same,fièvre,femmes; [3],ni fièvre
same,maux de tête,femmes; [3],ni maux de tête
same,fièvre,femmes; [4],ni fièvre
same,mal de tête,femmes; [4],ni mal de tête
"Cc1c(N(C)CS(=O)(=O)O)c(=O)n(-c2ccccc2)n1C [Dipyrone, metamizol sel de sodium]",grossesse,"trompes humaines; single 2 g intramuscular dose at each of two insertions of 180 mg quinacrine pellet (dissolution time 10 min), 76 subjects, 1064 months of follow-up",aucune grossesse n'a été détectée
C[C@H]1C[C@H]2[C@@H]3CCC4=CC(=O)C=C[C@]4(C)[C@@]3(F)[C@@H](O)C[C@]2(C)[C@@]1(O)C(=O)CO [Betaméthasone],grossesse,"trompes humaines; 4 mg intramuscular at each of two insertions of 250 mg quinacrine tablet, 90 subjects, 1220 months of follow-up, pregnancy in sixth month",Seulement une grossesse normotopique a été détectée
same,grossesse,"trompes humaines; 4 mg intrauterine (solution in 1 ml) simultaneously with quinacrine tablet, 65 subjects, 830 months of follow-up",Aucune grossesse n'a été signalée
same,potentialisation des effets occlusifs de la quinacrine,utérus de rat,active
